Reference: patent publication US12173029B2, “Antiviral prodrugs, pharmaceutical formulations, and methods” (priority 2020, dated 2024)
Read-outs that look alike come from different tables or passages of the source.

Key:
Human Coronavirus 229E [1] = type: cell-based; details: HCoV-229E in MRC-5 cells, three days, CPE by MTT
SARS-CoV-2 [2] = experiment: Example 6 SARS-CoV-2 infection assay in Huh7.5 cells (nucleocapsid immunofluorescence); type: cell-based; details: SARS CoV-2, Huh7.5 cells, MOI 0.1, 48 hours, percent infected cells
SARS-CoV-2 [3] = experiment: Example 6 SARS-CoV-2 infection assay in TMPRSS2-Vero cells (nucleocapsid immunofluorescence); type: cell-based; details: SARS CoV-2, TMPRSS2-Vero cells, MOI 0.01, 32 hours, percent infected cells
VERO E6 cells = experiment: Example 4 generation of remdesivir triphosphate in Vero E6 cells (LC/MS/MS); type: in vitro ADME, monkey
Experimental: In this example, Vero E6 cells were plated in 6 well plates at about 3.4×10^5 cells per well in 2 mL of media (DMEM, 10% FBS).
Cells were then incubated at 37° C. for 24 hours. Media was then aspirated and replaced with 2 ml of control media (fresh Dulbecco's Modified Eagle's Medium (DMEM), 10% FBS) or 2 mL of media with drug at a concentration of 1 μM. Cell were incubated with the various drugs for 48 hours. The media was aspirated, the cells rinsed twice with phosphate-buffered saline (PBS), trypsinized for 5 minutes with 1 mL ATV, triturated and removed to a 15 mL centrifuge tube, rinsed with 1 mL PBS, which was also then removed to the 15 mL centrifuge tube, and the cells were triturated again. Cells were counted in a Reichert hemocytometer using two 10 μL samples, and the number of cells in each sample was determined.
Cells were centrifuged at 1200 rpm for 10 minutes, diluent aspirated and the pellet resuspended in 250 μL of methanol/distilled water (70/30) and analyzed by LC/MS/MS. The results, which are depicted at FIG. 3, were in picomoles/10^6 cells and are the average of two or three determinations.

[4] = type: in vivo; details: Syrian hamsters, sodium salt
Experimental: ODBG-P-RVn in 0.1M sodium carbonate/bicarbonate buffer, pH 9.0, was administered to Syrian Hamsters by oral gavage every 12 hours for seven days. ODBG-P-RVn was present as the sodium salt.
FIG. 5A and FIG. 5B depict the seven day oral pharmacokinetics in Syrian hamsters. Syrian hamsters were given vehicle or ODBG-P-RVn by oral gavage every 12 hours for 7 days. Groups of 3 animals received vehicle or drug at doses of 16.9 and 13.2 mg/kg. Animals were weighed daily and monitored for clinical signs.
Analytical Methods: ODBG-P-RVn: Hamster plasma samples (10 μL) containing ODBG-P-RVn and K2EDTA as the anticoagulant were added to polypropylene tubes containing water (100 μL), internal standard solution (10 μL; 1,000 ng/mL of ODE-P-RVn in ACN:DMF (1:1, v/v)), and 10 μL of ACN:DMF (1:1, v/v). The solutions were mixed, then acidified with phosphoric acid, 85% w/v:water (1:19, v/v; 10 μL), mixed, then diluted with 200 μL of IPA, mixed, then diluted with 500 μL of water, and mixed. […] The ODBG-P-RVn extracts were analyzed using an Agilent 1200 HPLC system (Agilent, Santa Clara, CA) coupled to an API5500 mass analyzer (SCIEX, Foster City, CA). […]
The solutions were mixed and centrifuged at 16,000 g for five minutes. […] The GS-441524 extracts were analyzed using an Acquity UPLC system (Waters, Milford, MA) coupled to a G2-S QTof mass analyzer (Waters, Milford, MA). […]

[5] = tested on: USA WA-01 strain of SARS CoV-2; experiment: Example 2 anti-coronavirus activity in Vero E6 cells (qPCR spike RNA); type: cell-based; details: Vero C1008, SARS CoV-2 USA WA-01, Vero E6 cells, MOI 0.1, 48 hours
Experimental: Ten thousand Vero E6 cells were seeded in 100 microliters of culture medium in 96 well plates. The following day serial two-fold dilutions of antiviral compounds or the DMSO-containing vehicle were added to each well. The USA WA-01 strain of SARS CoV-2 was added to each well at a multiplicity of infection of 0.1 thirty minutes later. Cells were incubated for 48 hours, washed twice in PBS and lysed with TRIzol. RNA was extracted using Directzol micro RNA columns. RNA was made into cDNA and assayed for the SARS CoV-2 spike protein and for a housekeeping gene (RPLPO) RNA by qPCR. Data represents the average of duplicate wells. Cellular cytotoxicity was also measured in VERO E6 cells. […] Cytotoxicity (CC50) was assessed using a commercially available MTT assay.

[6] = tested on: SARS-CoV-2 isolate USA-WA1/2020; experiment: Example 3 SARS-CoV-2 infection in Vero E6 cells (qRT-PCR Spike RNA); type: cell-based; details: for EC50 / EC90: Severe acute respiratory syndrome coronavirus 2, Vero C1008, SARS-CoV-2 USA-WA1/2020, Vero E6 cells, MOI 0.01, 48 hours, mean±SD
[7] = tested on: SARS-CoV-2 isolate USA-WA1/2020; experiment: Example 7 SARS-CoV-2 infection in PSC-human lung cells (qRT-PCR); type: cell-based
[8] = tested on: SARS-CoV-2 isolate USA-WA1/2020; experiment: Example 7 SARS-CoV-2 infection in Calu-3 cells (qRT-PCR); type: cell-based; details: for EC50 / EC90: Severe acute respiratory syndrome coronavirus 2, SARS-CoV-2, Calu-3 cells, MOI 0.01, 48 hours
[9] = tested on: SARS-CoV-2 isolate USA-WA1/2020; experiment: Example 7 SARS-CoV-2 infection in Huh7.5 cells (qRT-PCR); type: cell-based; details: for EC50 / EC90: Severe acute respiratory syndrome coronavirus 2, SARS-CoV-2, Huh7.5 cells, MOI 0.01, 48 hours, qRT-PCR, Example 7
[10] = tested on: SARS-CoV-2 isolate USA-WA1/2020; experiment: Example 7 SARS-CoV-2 infection in Caco-2 cells (qRT-PCR); type: cell-based
SARS-CoV-2 [11] = experiment: Example 7 SARS-CoV-2 antiviral activity, summary across the five cell types; type: cell-based; details: Severe acute respiratory syndrome coronavirus 2; SARS-CoV-2, five cell types of Example 7; read-out: EC50, range across cell types
[12] = Example 7 cytotoxicity, summary across all cell lines; type: cell-based; details: monkey, human; five cell types of Example 7, 48 hours
Experimental: The cytotoxicity of each compound by incubating each of these cell lines with serial dilutions of each compound from 1.23 μM to 100 μM for 48 hours. […] The selectivity index of ODBG-P-RV ranged from 295 to 699 in the five cell types tested in this example).

Human Coronavirus 229E [13] = experiment: Example 8 human coronavirus 229E in MRC-5 cells (CPE, MTT); type: cell-based
Experimental: Human Coronavirus 229E (ATCC) was propagated and infectious units quantified by TCID50 using MRC-5 cells. For antiviral testing, approximately 10^4 MRC-5 cells were seeded per well in EMEM (10% FCS) at 37 C in a 96 well plate overnight. Medium from each well was removed and cells were infected with 100 TCID50 virus in 100 μL medium for two hours.
Cells were washed one time with medium and then compounds or controls added at the indicated concentrations. After three days, CPE was observed under microscope and quantified using an MTT cell proliferation assay kit (Abcam) read on an ELx800, Universal Microplate reader (BIO-TEK Instruments, INC). The % Inhibition was calculated as (Atv−Acv)/(Acd−Acv)×100% where Atv indicates the absorbance of the test compounds with virus infected cells and A, and Aca indicate the absorbance of the virus control and the absorbance of the cell control, respectively. The average half-maximal effective concentration (EC50) was defined as the concentration which achieved 50% inhibition of virus-induced cytopathic effects.
FIG. 4A and FIG. 4B: ODBG-P-RVn (15d) inhibits the human Alphacoronavirus 229E. […] Cells were infected with 229E for 2 hours followed by treatment with the indicated dose of the indicated drug for 72 hours. The relative CPE was determined by measuring cell viability using an MTT assay.

[14] = Example 8 cytotoxicity in MRC-5 cells (CellTiter-Glo); type: cell-based; details: human
Experimental: FIG. 4B depicts the cytotoxicity in MRC-5 cells incubated in the presence of the indicated drug at the indicated concentration for 72 hours, after which cell viability was measured by the CellTiter-Glo assay. Data points indicate the averages from 3 independent experiments performed in duplicate. Error bars represent the standard error mean (SEM).

[15] = after intravenous infusion; cited from earlier work
[16] = Example 7 cell viability assay (CellTiter-Glo) in Huh7.5 cells; details: human
[17] = Example 7 cell viability assay (CellTiter-Glo) in Vero E6 cells; details: monkey
[18] = Example 7 cell viability assay (CellTiter-Glo) in PSC-human lung cells
[19] = tested on: SARS-CoV-2 isolate USA-WA1/2020; experiment: Example 7 SARS-CoV-2 infection in Vero E6 cells (qRT-PCR); type: cell-based; details: Severe acute respiratory syndrome coronavirus 2, Vero C1008, SARS-CoV-2, Vero E6 cells, MOI 0.01, 48 hours
[20] = Example 2 cellular cytotoxicity in Vero E6 cells (MTT); details: monkey
[21] = Severe acute respiratory syndrome coronavirus 2, SARS-CoV-2, PSC-human lung cells, MOI 0.01, 48 hours
[22] = Severe acute respiratory syndrome coronavirus 2, SARS-CoV-2, Caco-2 cells, MOI 0.01, 48 hours

1-O-octadecyl-2-O-benzyl-sn-glycerol-benzyl-phospho-RVn [Compound 16]
EC50 (Human Coronavirus 229E [1]): 1500 ± 930 nM
EC90 (Human Coronavirus 229E [1]): 4270 ± 880 nM
EC50 (SARS-CoV-2 [2]): 3540 ± 583 nM
EC90 (SARS-CoV-2 [2]): 16400 ± 5980 nM
EC50 (SARS-CoV-2 [3]): 7440 ± 818 nM
EC90 (SARS-CoV-2 [3]): 15300 ± 5910 nM

CCCCCCCCCCCCCCCCCCOC[C@H](COP(=O)(O)OC[C@H]1O[C@@](C#N)(c2ccc3c(N)ncnn23)[C@H](O)[C@@H]1O)OCc1ccccc1 [Compound 15d, 1-O-octadecyl-2-O-benzyl-glyceryl-sn-3-phospho-RVn]
synthesis of remdesivir triphosphate (RVn-TP) (VERO E6 cells; exposure to 1 micromolar drug, up to 48 hours): increased progressively to 48 hours
tolerability / clinical signs ([4]; oral gavage every 12 hours for seven days, 16.9 and 13.2 mg/kg): well tolerated, and no adverse clinical signs were noted
time for plasma levels to fall by 50% ([4]; oral gavage): about 5 hours

CCC(CC)COC(=O)[C@H](C)N[P@](=O)(OC[C@H]1O[C@@](C#N)(c2ccc3c(N)ncnn23)[C@H](O)[C@@H]1O)Oc1ccccc1 [RDV, Remdesivir]
EC50 [5]: 3160 nM
EC90 [5]: 5500 nM
EC50 [6]: 4600 nM
EC90 [6]: 8900 ± 4900 nM
levels of RVn-TP (VERO E6 cells; 1 μM drug, at 8 and 24 hours): below the level of quantification
EC50 [7, 21]: 140 nM
EC90 [7, 21]: 230 nM
EC50 [8]: 230 nM
EC90 [8]: 310 nM
EC50 [9]: 60 nM
EC90 [9]: 120 nM
EC50 [10, 22]: 170 nM
EC90 [10, 22]: 280 nM
EC50 (SARS-CoV-2 [11]): 60 to 1130 nM
CC50 at 48 h [12]: ≥ 15200 nM
EC50 (Human Coronavirus 229E [13]; MRC5, 229E in MRC-5 cells, 72 hours, CPE by MTT, Example 8): 40 nM
EC90 (Human Coronavirus 229E [13]; MRC5, 72 h): 260 nM
CC50 at 72 h [14]: > 50000 nM
persistence in plasma at virologically significant levels [15]: less than 2 hours
CC50 at 48.5 h [16]: 15200 nM
CC50 at 48.5 h [17]: 101000 nM
CC50 at 48.5 h [18]: 32700 nM

N#C[C@@]1(c2ccc3c(N)ncnn23)O[C@H](CO)[C@@H](O)[C@H]1O [RVn, 2-C-(4-aminopyrrolo[2,1-f][1,2,4]triazin-7-yl)-2,5-anhydro-D-altrononitrile]
EC50 [5]: 1560 nM
EC90 [5]: 2690 nM
Selectivity ([6]; Selectivity index, CC50/EC50, Vero E6 cells, Example 3): >58.8
EC50 [6]: 1700 nM
EC90 [6]: 3200 ± 770 nM
EC50 [19]: 380 nM
EC90 [19]: 770 nM
Selectivity ([7]; Selectivity index CC50/EC50, PSC-human lung cells): >135
EC50 [7, 21]: 740 nM
Selectivity ([8]; Selectivity index CC50/EC50, Calu-3 cells): >666
EC50 [8]: 150 nM
EC90 [8]: 180 nM
Selectivity ([9]; Selectivity index CC50/EC50, Huh7.5 cells): >312
EC50 [9]: 320 nM
EC90 [9]: 730 nM
Selectivity ([10]; Selectivity index CC50/EC50, Caco-2 cells): >104
EC50 [10, 22]: 960 nM
CC50 [20]: > 50000 nM
